Publication PMC12586182 (Frontiers in Oncology, 2025)

Key:
Assay in all cases: Kinase panel profiling at 1 µmol/L (mobility shift assay, Carna)
Format in all cases: biochemical
Settings in all cases: 1 µmol/L of BTK inhibitor
LYNa = biological target: T1, LYNa (Homo sapiens, UniProt P07948)
T1 construct: purchased Carna Biosciences

BRSK2 = biological target: T2, BRSK2 (Homo sapiens, UniProt Q8IWQ3)
T2 construct: purchased Carna Biosciences
T2 sequence (Q8IWQ3 1-736): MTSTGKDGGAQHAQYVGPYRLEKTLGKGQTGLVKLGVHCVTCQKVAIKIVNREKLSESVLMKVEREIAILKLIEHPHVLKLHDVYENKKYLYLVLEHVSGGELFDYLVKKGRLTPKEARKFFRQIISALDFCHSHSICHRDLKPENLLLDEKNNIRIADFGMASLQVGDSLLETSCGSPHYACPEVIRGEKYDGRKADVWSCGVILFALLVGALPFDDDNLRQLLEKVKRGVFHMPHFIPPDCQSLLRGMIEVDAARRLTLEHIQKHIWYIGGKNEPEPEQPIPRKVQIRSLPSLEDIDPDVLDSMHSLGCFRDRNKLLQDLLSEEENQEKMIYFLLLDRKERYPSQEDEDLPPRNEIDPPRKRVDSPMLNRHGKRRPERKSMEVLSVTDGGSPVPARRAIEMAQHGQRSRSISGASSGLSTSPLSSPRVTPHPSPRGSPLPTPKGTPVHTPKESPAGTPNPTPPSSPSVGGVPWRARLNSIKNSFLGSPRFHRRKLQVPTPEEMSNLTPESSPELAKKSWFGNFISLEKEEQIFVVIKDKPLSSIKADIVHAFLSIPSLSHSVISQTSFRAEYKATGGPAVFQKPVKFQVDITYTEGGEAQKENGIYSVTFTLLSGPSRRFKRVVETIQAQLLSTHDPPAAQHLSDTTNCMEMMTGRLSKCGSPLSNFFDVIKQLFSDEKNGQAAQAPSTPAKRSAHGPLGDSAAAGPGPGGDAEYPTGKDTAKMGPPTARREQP

EPHA6 = biological target: T3, EPHA6 (Homo sapiens, UniProt Q9UF33)
T3 construct: purchased Carna Biosciences
T3 sequence (Q9UF33 23-1036): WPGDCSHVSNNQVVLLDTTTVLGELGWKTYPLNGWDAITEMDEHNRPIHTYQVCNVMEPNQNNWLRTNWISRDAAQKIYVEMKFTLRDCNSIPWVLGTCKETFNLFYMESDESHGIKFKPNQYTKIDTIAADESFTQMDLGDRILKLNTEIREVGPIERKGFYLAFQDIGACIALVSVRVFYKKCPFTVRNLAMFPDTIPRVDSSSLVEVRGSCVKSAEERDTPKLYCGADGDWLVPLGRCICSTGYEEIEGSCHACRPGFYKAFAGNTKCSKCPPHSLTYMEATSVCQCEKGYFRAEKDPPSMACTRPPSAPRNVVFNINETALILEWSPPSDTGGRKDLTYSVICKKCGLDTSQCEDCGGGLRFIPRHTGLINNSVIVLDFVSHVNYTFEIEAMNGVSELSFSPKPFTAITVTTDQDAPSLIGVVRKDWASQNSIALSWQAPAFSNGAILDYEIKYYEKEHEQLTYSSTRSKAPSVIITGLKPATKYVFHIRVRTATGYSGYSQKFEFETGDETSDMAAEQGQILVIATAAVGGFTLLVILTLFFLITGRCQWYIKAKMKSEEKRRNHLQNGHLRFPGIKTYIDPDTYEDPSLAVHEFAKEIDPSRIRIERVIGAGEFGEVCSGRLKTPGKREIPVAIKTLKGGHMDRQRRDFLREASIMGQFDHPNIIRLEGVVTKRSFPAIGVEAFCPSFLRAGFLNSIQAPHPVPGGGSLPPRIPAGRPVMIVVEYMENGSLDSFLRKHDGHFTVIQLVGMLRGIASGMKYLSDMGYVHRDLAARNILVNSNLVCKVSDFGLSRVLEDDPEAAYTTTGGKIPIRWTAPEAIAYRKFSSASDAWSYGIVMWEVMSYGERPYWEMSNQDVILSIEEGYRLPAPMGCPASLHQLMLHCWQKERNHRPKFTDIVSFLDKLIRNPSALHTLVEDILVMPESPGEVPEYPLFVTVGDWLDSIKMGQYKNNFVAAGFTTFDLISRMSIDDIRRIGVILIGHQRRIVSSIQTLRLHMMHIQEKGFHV

ITK = biological target: T4, ITK (Homo sapiens, UniProt Q08881)
T4 construct: purchased Carna Biosciences
T4 sequence (Q08881 1-620): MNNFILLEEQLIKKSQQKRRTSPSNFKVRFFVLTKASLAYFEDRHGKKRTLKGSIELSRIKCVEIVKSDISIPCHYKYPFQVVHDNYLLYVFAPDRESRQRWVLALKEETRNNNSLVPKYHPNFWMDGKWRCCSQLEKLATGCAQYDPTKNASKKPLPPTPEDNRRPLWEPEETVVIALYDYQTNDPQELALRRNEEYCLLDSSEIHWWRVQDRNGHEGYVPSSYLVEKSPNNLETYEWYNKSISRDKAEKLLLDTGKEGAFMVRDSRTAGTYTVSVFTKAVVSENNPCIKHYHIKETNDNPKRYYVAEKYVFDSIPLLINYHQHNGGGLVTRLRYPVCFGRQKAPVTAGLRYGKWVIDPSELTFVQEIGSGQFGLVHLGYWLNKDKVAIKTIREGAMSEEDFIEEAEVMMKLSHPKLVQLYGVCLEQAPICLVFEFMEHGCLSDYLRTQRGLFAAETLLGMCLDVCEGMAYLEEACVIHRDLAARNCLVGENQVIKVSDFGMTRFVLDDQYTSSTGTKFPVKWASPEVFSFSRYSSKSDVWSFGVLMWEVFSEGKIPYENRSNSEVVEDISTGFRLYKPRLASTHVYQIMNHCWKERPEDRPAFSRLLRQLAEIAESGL

PKCδ = biological target: T5, PKCδ (Homo sapiens, UniProt Q05655)
T5 construct: purchased Carna Biosciences
T5 sequence (Q05655 whole entry): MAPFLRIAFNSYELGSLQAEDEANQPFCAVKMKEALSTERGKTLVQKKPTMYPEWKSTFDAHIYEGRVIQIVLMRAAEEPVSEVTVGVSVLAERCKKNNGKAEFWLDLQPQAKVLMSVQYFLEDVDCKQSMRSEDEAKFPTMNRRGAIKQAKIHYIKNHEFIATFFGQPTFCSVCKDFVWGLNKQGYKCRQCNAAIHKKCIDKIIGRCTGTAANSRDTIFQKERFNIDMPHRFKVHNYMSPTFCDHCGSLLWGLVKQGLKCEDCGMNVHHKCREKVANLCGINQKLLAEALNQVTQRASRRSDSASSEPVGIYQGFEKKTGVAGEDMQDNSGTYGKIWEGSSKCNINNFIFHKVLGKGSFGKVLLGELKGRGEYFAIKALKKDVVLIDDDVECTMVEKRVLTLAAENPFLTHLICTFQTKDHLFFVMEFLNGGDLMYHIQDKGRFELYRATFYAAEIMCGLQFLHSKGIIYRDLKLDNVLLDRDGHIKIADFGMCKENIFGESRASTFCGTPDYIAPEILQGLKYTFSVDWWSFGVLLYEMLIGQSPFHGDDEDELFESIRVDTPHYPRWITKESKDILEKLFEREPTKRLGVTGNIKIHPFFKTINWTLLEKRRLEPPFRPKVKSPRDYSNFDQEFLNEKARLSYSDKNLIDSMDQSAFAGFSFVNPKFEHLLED

DDR1 = biological target: T6, DDR1 (Homo sapiens, UniProt Q08345)
T6 construct: purchased Carna Biosciences
T6 sequence (Q08345 19-913): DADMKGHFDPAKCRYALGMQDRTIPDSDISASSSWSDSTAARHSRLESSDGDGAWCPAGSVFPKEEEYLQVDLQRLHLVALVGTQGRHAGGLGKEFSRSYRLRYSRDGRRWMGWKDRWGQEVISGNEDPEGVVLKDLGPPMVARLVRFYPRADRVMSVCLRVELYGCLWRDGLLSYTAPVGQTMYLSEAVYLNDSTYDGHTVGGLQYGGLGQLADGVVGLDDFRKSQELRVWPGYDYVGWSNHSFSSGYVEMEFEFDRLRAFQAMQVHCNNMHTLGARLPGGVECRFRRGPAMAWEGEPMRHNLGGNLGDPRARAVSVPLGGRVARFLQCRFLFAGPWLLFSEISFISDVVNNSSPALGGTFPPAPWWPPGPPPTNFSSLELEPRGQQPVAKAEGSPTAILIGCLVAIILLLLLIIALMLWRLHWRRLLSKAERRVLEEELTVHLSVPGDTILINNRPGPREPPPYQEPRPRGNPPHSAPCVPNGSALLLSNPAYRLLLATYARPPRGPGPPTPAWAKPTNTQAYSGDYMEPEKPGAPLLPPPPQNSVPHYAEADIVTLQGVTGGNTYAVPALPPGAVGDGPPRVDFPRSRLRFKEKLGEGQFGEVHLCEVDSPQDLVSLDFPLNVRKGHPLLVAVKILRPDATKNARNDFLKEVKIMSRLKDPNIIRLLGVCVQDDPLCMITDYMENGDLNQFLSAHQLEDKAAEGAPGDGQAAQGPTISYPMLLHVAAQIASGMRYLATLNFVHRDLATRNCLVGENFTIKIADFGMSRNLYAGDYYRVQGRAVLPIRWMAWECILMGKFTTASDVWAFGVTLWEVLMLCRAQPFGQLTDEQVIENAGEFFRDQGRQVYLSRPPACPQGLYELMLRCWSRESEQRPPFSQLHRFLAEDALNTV

LCK = biological target: T7, LCK (Homo sapiens, UniProt P06239)
T7 construct: purchased Carna Biosciences
T7 sequence (P06239 whole entry): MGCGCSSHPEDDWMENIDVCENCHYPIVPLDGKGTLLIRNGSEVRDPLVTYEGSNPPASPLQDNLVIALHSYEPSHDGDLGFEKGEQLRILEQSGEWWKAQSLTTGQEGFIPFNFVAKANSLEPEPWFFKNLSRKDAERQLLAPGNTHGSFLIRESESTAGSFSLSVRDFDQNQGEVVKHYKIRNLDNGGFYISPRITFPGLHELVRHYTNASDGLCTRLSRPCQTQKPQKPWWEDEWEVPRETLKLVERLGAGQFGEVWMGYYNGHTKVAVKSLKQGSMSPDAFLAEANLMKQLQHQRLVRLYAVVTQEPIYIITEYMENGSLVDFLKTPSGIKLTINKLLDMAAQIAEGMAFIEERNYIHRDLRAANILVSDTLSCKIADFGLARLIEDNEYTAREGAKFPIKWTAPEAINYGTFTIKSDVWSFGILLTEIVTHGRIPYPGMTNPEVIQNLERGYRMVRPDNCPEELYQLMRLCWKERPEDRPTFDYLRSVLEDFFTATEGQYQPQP

T1 sequence (P07948 whole entry): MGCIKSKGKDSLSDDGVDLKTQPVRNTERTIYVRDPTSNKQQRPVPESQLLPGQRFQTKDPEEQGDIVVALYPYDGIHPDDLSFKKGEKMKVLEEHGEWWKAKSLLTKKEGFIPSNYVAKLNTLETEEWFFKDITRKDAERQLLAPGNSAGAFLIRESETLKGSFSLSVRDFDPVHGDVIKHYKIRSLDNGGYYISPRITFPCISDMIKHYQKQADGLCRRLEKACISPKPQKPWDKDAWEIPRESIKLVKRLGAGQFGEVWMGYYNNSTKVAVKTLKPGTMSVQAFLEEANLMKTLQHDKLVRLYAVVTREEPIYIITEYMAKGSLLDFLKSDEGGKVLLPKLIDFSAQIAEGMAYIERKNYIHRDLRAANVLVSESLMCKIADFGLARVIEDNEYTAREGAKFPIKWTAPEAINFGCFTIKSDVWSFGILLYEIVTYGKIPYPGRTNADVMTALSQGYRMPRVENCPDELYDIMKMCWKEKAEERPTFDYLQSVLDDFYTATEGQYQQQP

## CC#CC(=O)N1CCC[C@H]1c1nc(-c2ccc(C(=O)Nc3ccccn3)cc2)c2c(N)nccn12 [acalabrutinib]
LYNa
  Percentage inhibition of kinase enzyme activity: 1.93%
BRSK2
  Percentage inhibition of kinase enzyme activity: -10.15%
EPHA6
  Percentage inhibition of kinase enzyme activity: -2.37%
ITK
  Percentage inhibition of kinase enzyme activity: 0.87%
PKCδ
  Percentage inhibition of kinase enzyme activity: -8.64%
DDR1
  Percentage inhibition of kinase enzyme activity: 7.80%
LCK
  Percentage inhibition of kinase enzyme activity: 6.84%

## C=CC(=O)N1CCC[C@@H](n2nc(-c3ccc(Oc4ccccc4)cc3)c3c(N)ncnc32)C1 [ibrutinib]
LYNa
  Percentage inhibition of kinase enzyme activity: 98.69%
BRSK2
  Percentage inhibition of kinase enzyme activity: 15.84%
EPHA6
  Percentage inhibition of kinase enzyme activity: 92.64%
ITK
  Percentage inhibition of kinase enzyme activity: 93.10%
PKCδ
  Percentage inhibition of kinase enzyme activity: 0.52%
DDR1
  Percentage inhibition of kinase enzyme activity: 37.17%
LCK
  Percentage inhibition of kinase enzyme activity: 100.25%

## O=C(c1ccc(Oc2ccccc2)cc1Cl)c1c[nH]c2ncnc(N[C@@H]3CC[C@@H](CO)OC3)c12 [nemtabrutinib]
LYNa
  Percentage inhibition of kinase enzyme activity: 100.76%
BRSK2
  Percentage inhibition of kinase enzyme activity: 15.84%
EPHA6
  Percentage inhibition of kinase enzyme activity: 49.03%
ITK
  Percentage inhibition of kinase enzyme activity: 8.66%
PKCδ
  Percentage inhibition of kinase enzyme activity: 6.96%
DDR1
  Percentage inhibition of kinase enzyme activity: 93.81%
LCK
  Percentage inhibition of kinase enzyme activity: 70.86%

## C=CC(=O)N1CCC([C@@H]2CCNc3c(C(N)=O)c(-c4ccc(Oc5ccccc5)cc4)nn32)CC1 [zanubrutinib]
EPHA6
  Percentage inhibition of kinase enzyme activity: 0.76%
ITK
  Percentage inhibition of kinase enzyme activity: -2.98%
LCK
  Percentage inhibition of kinase enzyme activity: 0.21%

## COc1ccc(F)cc1C(=O)NCc1ccc(-c2nn([C@@H](C)C(F)(F)F)c(N)c2C(N)=O)cc1 [pirtobrutinib]
LYNa
  Percentage inhibition of kinase enzyme activity: 46.22%
BRSK2
  Percentage inhibition of kinase enzyme activity: 7.17%
EPHA6
  Percentage inhibition of kinase enzyme activity: 6.36%
ITK
  Percentage inhibition of kinase enzyme activity: 0.65%
PKCδ
  Percentage inhibition of kinase enzyme activity: -3.98%
DDR1
  Percentage inhibition of kinase enzyme activity: 2.52%
LCK
  Percentage inhibition of kinase enzyme activity: 30.64%
